# According to patent US20060281680A1, “Methods and compositions for modulating vascular integrity” (GENENTECH, INC., priority 2005, published 2006):
# Tests used:
# Assay type in all cases: cell-based, human
# [1] = tested on: DSCR1; assay: GeneCalling analysis of DSCR1 mRNA expression in HUVECs; details: VEGF 30 ng/mL, relative to basal conditions
# Source text: (§1) Cells and cell assays. Primary human endothelial cells were purchased from Clonetics (Santa Rosa, Calif.) and cultured according to the manufacturer's instructions. For gene calling experiments, human umbilical vein endothelial cells (HUVECs) were purchased from Clonetics (BioWhittaker, Walkersville, Md.) and maintained in endothelial growth medium (EBM-2) complemented with 5% fetal calf serum (FCS) following the manufacturer's instructions. Cells (1×107) were split at a cell density of 19 000 cell/cm2 and triplicate experiments for each condition were run in parallel. Twenty-four hours after plating the cells, cell were washed 3 times with phosphate-buffered saline (PBS) and media (Clonetics) containing either 0.1% bovine serum albumin (BSA) or 0.1% BSA plus VEGF (30 ng/mL) or 5% FCS. RNA isolation and reverse transcription-PCR (RT-PCR) analysis was performed as described.^21 For cell culture experiments, the following conditions were used: human (h) VEGF, 30 ng/mL; hTNF-α, 10 ng/mL; PMA, 200 ng/mL (Calbiochem, LaJolla, Calif.); CsA, 1 μM (Calbiochem); IO 5 μM (Sigma, St Louis, Mo.); thapsigargin, 50 nM (Sigma). […] 24 hours after serum starvation and dosing, cell were counted on a Coulter brand style cell counter. […]
# [2] = tested on: HUVECs; assay: GeneCalling gene expression profiles of stimulated HUVECs
# Source text: as §1
# [3] = tested on: DSCR1; assay: DSCR1 expression analysis by real-time RT-PCR (TaqMan) in HUVECs; details: serum-starved HUVECs, over 36 hours
# Source text: (§2) Cells and cell assays. Primary human endothelial cells were purchased from Clonetics (Santa Rosa, Calif.) and cultured according to the manufacturer's instructions. For gene calling experiments, human umbilical vein endothelial cells (HUVECs) were purchased from Clonetics (BioWhittaker, Walkersville, Md.) and maintained in endothelial growth medium (EBM-2) complemented with 5% fetal calf serum (FCS) following the manufacturer's instructions. Cells (1×107) were split at a cell density of 19 000 cell/cm2 and triplicate experiments for each condition were run in parallel. Twenty-four hours after plating the cells, cell were washed 3 times with phosphate-buffered saline (PBS) and media (Clonetics) containing either 0.1% bovine serum albumin (BSA) or 0.1% BSA plus VEGF (30 ng/mL) or 5% FCS. RNA isolation and reverse transcription-PCR (RT-PCR) analysis was performed as described.^21 For cell culture experiments, the following conditions were used: human (h) VEGF, 30 ng/mL; hTNF-α, 10 ng/mL; PMA, 200 ng/mL (Calbiochem, LaJolla, Calif.); CsA, 1 μM (Calbiochem); IO 5 μM (Sigma, St Louis, Mo.); thapsigargin, 50 nM (Sigma). In one instance inhibiting (si) RNAs were generated by Dharmacon (Lafayette, Colo.) based on the full-length cDNAs of the respective gene and using the “Smart-pool” service (Dharmacon, Lafayette, Colo.). For adenoviral transduction survival experiments, human umbilical vein endothelial cells (HUVECs) were maintained in endothelial growth medium (EBM-2) complemented with 5% FCS following the manufacturer's instructions. 3×10^5 cells were split per well of a 6 well plate (Primaria, BD Biosciences, Bedford, Mass.) and duplicate experiments for each condition were run in parallel. Cells were infected with adenovirus (MOI=100) encoding for a gD peptide (Ad-Control), DSCR1 (Ad-DSCR1) or an antisense construct with the coding sequence inverted (Ad-DSCR1-AS) for 2 h in serum free media containing 10 mM […] and 10 nM MgCl2 on a vertical shaker at room temperature. Thereafter, 5 times the volume of regular growth medium containing 5% FCS was added and cells were kept for 1 day in a CO2 incubator. Thereafter, cells were washed three times with PBS and basal media (Clonetics, Santa Rosa, Calif.) containing 0.1 % BSA was added and PMA/IO, H202, and ZVAD as indicated. 24 hours after serum starvation and dosing, cell were counted on a Coulter brand style cell counter. For cell culture experiments, the following conditions were used: PMA: 200 ng/ml (Calbiochem, LaJolla, Calif.), Ionomycine: 5 μM (Sigma, St. Louis, Mo.), a 3% H202 solution was diluted 1:300 in basal media, 0.1% BSA to result in a 0.01% H202 solution, ZVAD 5 μM.
# [4] = tested on: DSCR1; assay: DSCR1 expression by real-time RT-PCR in HPAECs, HMVECs and HUAECs; details: HMVECs, HUAECs
# Source text: as §1
# [5] = tested on: DSCR1; assay: Western blot of DSCR1 protein in whole cell extracts of HUVECs; details: 6 hours of stimulation
# Procedure: Cells cultured in 10-cm dishes were washed twice in Tris (tris(hydroxymethyl)aminomethane)-buffered saline, and 0.6 mL RIPA buffer (10 mM PBS, 1% Nonidet P-40, 0.5% sodium deoxycholate, 0.1% sodium dodecyl sulfate [SDS], […] phenylmethylsulfonyl fluoride, 30 μg/mL aprotinin, 1 mM sodium orthovanadate), and protease inhibitors (Roche Pharmaceuticals, Gaithersburg, Md.) were added. Mouse monoclonal antibody (mAb) directed against human NFATc 1, c2, and c3 was purchased from Santa Cruz Biotechnology (Santa Cruz, Calif.). Affinity-purified goat polyclonal antibody against human E-selectin, vascular cell adhesion molecule-1 (VCAM-1), intercellular adhesion molecule-1 (ICAM-1), and Cox-2 was from BD Pharmingen. Total endothelial cell extract, polyacrylamide gel electrophoresis (PAGE), blotting, and immunodetection were performed according to the Santa Cruz Biotechnology protocol. A total of […] whole-cell extract was loaded on each lane of a 4% to 16% polyacrylamide gel. The enhanced chemiluminescence (ECL) reaction kit was purchased from Amersham Pharmacia Biotech (Piscataway, N.J.), and horseradish peroxidase streptavidin from Vector Laboratories (Burlingame, Calif.) was used. For NFATc1 experiments, equal amounts of cell extract were loaded to visualize NFATc1 (mAb 7A6; 1:500; Santa Cruz Biotechnology) and the loading control α-tubulin (mAb from ICN, Santa Ana, Calif.; 1:5000). For Cox-2 and TF immunoblot analysis equal amounts of cell lysate were loaded on a 6% to 12% gradient SDS-PAGE. Cox-2 was analyzed with an anti-Cox2 mAb (RDI, 1:500) and TF with an anti-hTF mAb (clone 7G11) was generated at Genentech, and used at a 1:500 dilution. Before loading the samples on the gel, the protein amounts were quantified and adjusted accordingly. As loading control, an anti-γ-adaptin mAb was used (1:1000) on a 4% to 20% polyacrylamide gel.
# DSCR1 was PCR amplified with primers DSCR1-EcoRI-Pro 5′, adding an extra proline and DSCR1-Stop-XhoI 3′, by using DSCR1 cDNA as a template and cloned into pGEX-KG. GST-DSCR1 was expressed and purified essentially as described previously.^23 Polyclonal rabbit anti-GST-DSCR1 was prepared by immunization with recombinant GST-DSCR1. Filtered crude serum was used for Western blots (1:400).
# [6] = tested on: NFATc1; assay: IHC/immunofluorescence analysis of nuclear translocation of NFATc1; details: endothelial cells, 20 minutes after VEGF 30 ng/mL; adenoviral transduction MOI=100
# Procedure: Primary human endothelial cells (7×10^3 cells/cm^2) were seeded into each well of an 8-chamber microscope slide (Nalgene Nunc, Naperville, Ill.) 24 hours prior to staining. Cells were infected with adenovirus (multiplicity of infection [MOI]=100) encoding for LacZ or DSCR1 for 2 hours in serum-free media containing 10 mM CaCl2 and 10 nM MgCl2 on a vertical shaker at room temperature. Thereafter, 5 times the volume of regular growth medium was added and cells were kept for 2 days in a CO2 incubator. After replacing the media, cells were treated with hVEGF at a concentration of 30 ng/mL for 20 minutes. Prior to incubation with various antibodies, cells were fixed with methanol for 4 minutes at −20° C. and washed with PBS at room temperature. Cells were incubated in PBS containing the primary mouse antihuman NFATc1 antibody (sc7294, Santa Cruz Biotechnology) for 1 hour at room temperature. Cells were then washed 3 times with PBS and incubated in PBS containing Alexa Fluor 488 antimouse IgG (Molecular Probes, Eugene, Oreg.). Cells were finally washed 3 times with PBS and mounted beneath coverslips in Vectashield medium (Vector Laboratories). Microscopy and photography were conducted using a Zeiss Axiovert 200 fluorescence microscope fitted with an AxioCam MR monochrome camera (Zeiss, Thornwood, N.Y.) using a ×63 oil objective.
# [7] = tested on: Cox-2, E-selectin, TF; assay: Real-time RT-PCR of inflammatory marker / VEGF target genes in HUVECs
# Source text: as §2
substance,measurement,setting,value
VEGF,induced DSCR1 mRNA expression,[1]; after 6 hours,4.8 fold
same,induced DSCR1 mRNA expression,[1]; after 24 hours,2.9 fold
same,changes in traces representing alterations in expression of genes,[2]; after 6 hours,1.7%
same,changes in traces representing alterations in expression of genes,[2]; after 24 hours,3.4%
same,DSCR1 expression levels (real-time RT-PCR),[3],induced prolonged expression of DSCR1
same,DSCR1 expression (real-time RT-PCR),[4],increased levels of DSCR1 expression
same,DSCR1 protein levels,[5],induction of DSCR1
same,nuclear localization of NFATc1,[6],prominent nuclear localization of NFATc1
same,expression of Bcl-2,"[7]; HUVECs, VEGF stimulation, entire experiment",consistently expressed
same,"GM-CSF, TF, COX-2, VCAM-1 and E-selectin RNA levels","[7]; HUVECs, between 0 and 2 hours after VEGF",increased
same,"GM-CSF, TF, COX-2, VCAM-1 and E-selectin RNA levels","[7]; HUVECs, between 6 and 36 hours after VEGF, compared to untreated cells",reversed into repression
same,"increase in gene expression (COX2, E-selectin, TF mRNA)","[7]; endothelial cells, 4 hours of incubation",2- to 3 fold
